For seven compounds, IC50 results are on record in BindingDB's records for doi:10.3109/14756366.2010.548329 (Sun Yat-sen University, 2011).

pIC50: −log10 of the molar value.

One assay has as its target Acetylcholinesterase (Electrophorus electricus, UniProt O42275). The assay is described as follows: Enzyme Inhibition Assay. As to conditions: pH 8; 37 °C. On the procedure: (§1) Enzyme solutions were prepared to give 2.0 units/mL in 2 mL aliquots. The assay medium contained phosphate buffer, pH 8.0 (1 mL), 50 μL of 0.01 M DTNB, 10 μL of enzyme, and 50 μL of 0.01 M substrate (ATC). The substrate was added to the assay medium containing enzyme, buffer, and DTNB with inhibitor after 15 min of incubation time. […] In vitro BuChE assay use the similar method described above.

For the next assay, the target named is Cholinesterase (Equus caballus, UniProt P81908). Kind of assay: Enzyme Inhibition Assay. As to conditions: pH 8; 37 °C. Here is the method:
as §1

Sequence of Acetylcholinesterase (O42275 whole entry): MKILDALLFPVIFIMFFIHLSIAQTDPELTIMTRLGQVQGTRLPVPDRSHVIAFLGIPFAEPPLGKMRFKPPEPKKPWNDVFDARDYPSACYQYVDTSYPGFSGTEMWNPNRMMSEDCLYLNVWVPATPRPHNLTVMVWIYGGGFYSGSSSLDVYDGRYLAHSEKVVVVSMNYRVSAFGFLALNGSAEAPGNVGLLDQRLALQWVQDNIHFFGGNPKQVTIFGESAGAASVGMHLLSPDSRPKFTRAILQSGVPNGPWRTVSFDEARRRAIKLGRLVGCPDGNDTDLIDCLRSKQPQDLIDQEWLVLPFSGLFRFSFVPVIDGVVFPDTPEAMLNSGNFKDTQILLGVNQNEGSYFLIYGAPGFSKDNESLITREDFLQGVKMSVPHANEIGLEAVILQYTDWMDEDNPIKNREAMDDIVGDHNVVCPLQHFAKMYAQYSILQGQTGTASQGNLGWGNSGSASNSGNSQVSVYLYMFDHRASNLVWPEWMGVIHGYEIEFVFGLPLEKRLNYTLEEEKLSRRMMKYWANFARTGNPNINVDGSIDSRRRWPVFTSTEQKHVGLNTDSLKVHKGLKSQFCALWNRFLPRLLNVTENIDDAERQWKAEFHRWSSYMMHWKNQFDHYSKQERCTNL
Sequence of Cholinesterase (P81908 whole entry): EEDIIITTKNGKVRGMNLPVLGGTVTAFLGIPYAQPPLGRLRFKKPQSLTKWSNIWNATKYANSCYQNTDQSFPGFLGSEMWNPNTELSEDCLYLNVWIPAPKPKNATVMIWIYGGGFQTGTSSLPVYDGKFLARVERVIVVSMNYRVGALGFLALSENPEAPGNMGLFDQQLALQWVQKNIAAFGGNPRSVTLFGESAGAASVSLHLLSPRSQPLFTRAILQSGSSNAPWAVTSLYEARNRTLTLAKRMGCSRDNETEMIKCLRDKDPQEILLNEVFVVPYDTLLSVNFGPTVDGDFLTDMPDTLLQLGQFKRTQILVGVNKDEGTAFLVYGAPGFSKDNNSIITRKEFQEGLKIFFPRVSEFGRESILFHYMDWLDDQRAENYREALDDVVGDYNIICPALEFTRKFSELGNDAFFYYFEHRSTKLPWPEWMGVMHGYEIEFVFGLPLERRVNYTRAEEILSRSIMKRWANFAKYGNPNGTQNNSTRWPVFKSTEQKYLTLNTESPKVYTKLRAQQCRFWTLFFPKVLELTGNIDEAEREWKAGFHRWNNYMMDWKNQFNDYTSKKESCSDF

A word on the pIC50: it is the negative decadic logarithm of the IC50, by convention in mol/L. `COc1cc(CNCCCCCCCCNCc2cc(OC)c3c(c2)OCO3)cc2c1OCO2` [N1, N8-bis((7-methoxybenzo[d][1,3]dioxol-5-yl)methyl)octane-1,8-diamine (5f)]: the pIC50 against Acetylcholinesterase was 5.55; on Cholinesterase it was 5.51.
For `COc1cc(CNCCCNCc2cc(OC)c3c(c2)OCO3)cc2c1OCO2` [N1,N3-bis((7-methoxybenzo[d][1,3]dioxol-5-yl)methyl)propane-1,3-diamine (5a)] the same measures were less than 3.90 and 4.28.
In the case of `COc1cc(CNCCCCNCc2cc(OC)c3c(c2)OCO3)cc2c1OCO2` [N1,N4-bis((7-methoxybenzo[d][1,3]dioxol-5-yl)methyl)butane-1,4-diamine (5b)], the pIC50 was 3.92 against Acetylcholinesterase and 4.92 against Cholinesterase.
For `COc1cc(CNCCCCCNCc2cc(OC)c3c(c2)OCO3)cc2c1OCO2` [N1,N5-bis((7-methoxybenzo[d][1,3]dioxol-5-yl)methyl)pentane-1,5-diamine (5c)] the same measures were 4.88 and 5.47.
The like results for `COc1cc(CNCCCCCCNCc2cc(OC)c3c(c2)OCO3)cc2c1OCO2` [N1,N6-bis((7-methoxybenzo[d][1,3]dioxol-5-yl)methyl)hexane-1,6-diamine (5d)] were, in that order, 5.01 and 5.68.
The like results for `COc1cc(CNCCCCCCCNCc2cc(OC)c3c(c2)OCO3)cc2c1OCO2` [N1,N7-bis((7-methoxybenzo[d][1,3]dioxol-5-yl)methyl)heptane-1,7-diamine (5e)] were, in that order, 5.37 and 5.52.
Turning to `COc1cc(CNCCCCCCCCCNCc2cc(OC)c3c(c2)OCO3)cc2c1OCO2` [N1,N9-bis((7-methoxybenzo[d][1,3]dioxol-5-yl)methyl)nonane-1,9-diamine (5g)], the pIC50 at Acetylcholinesterase is 5.56; against Cholinesterase it was 5.29.
